From US10265374B2, “Occidiofungin formations and uses thereof” (MISSISSIPPI STATE UNIVERSITY, priority 2014, dated 2019)
Where “and” joins values, the source holds several entries; their conditions need not be identical. Identical values can stand only once. Entries after “also recorded” stand apart in the source; their conditions may differ.

Tests used:
[1] = system: normal human neonatal dermal fibroblasts cell line; assay: In vitro toxicity screening (CellTiter-Blue cell viability, 48 hours); format: cell-based
Text: Cancer cell lines, OVCAR8 (Center for Cancer Research (OVAR.8; Sample ID 25)), SW1088 (ATCC-HTB-12), and Toledo (ATCC CRL-2631), and normal human neonatal dermal fibroblasts cell line (ATCC-PCS-201-010) were passaged and prepped as previously described (See References 15-17). OVCAR8, SW1088, and Toledo2631 are ovarian, brain, and B-cell lymphoma cancer cell lines, respectively. This panel of cell lines was chosen based, in part, on their being from very different cancer types in order to discern whether occidiofungin would have a broad spectrum activity towards cancer cell lines of vastly different parental organ/cell types. OVCAR8 cells are widely used in the field of cancer therapeutic research as a panel representative of ovarian cancer in screening experiments for identifying both ovarian-specific and non-specific (i.e., anti-neoplastic activity on multiple cancer cell types) therapeutic agents (See References 28-30). Similarly, SW1088 cells are widely used in the field of cancer therapeutic research as a panel representative of glioma (the most common brain cancer) in screening experiments for identifying both glioma-specific and non-specific therapeutic agents (See References 31-32). Toledo 2631 cells are derived from lymphoma cells, and are used in the field of cancer therapeutic research for identifying lymphoma-specific and non-specific therapeutic agents (See, e.g., Reference 33). […] Cell counts per plate were calculated to be approximately 50,000 cells/mL. A 10× stock solution of occidiofungin was prepared at 65 μM concentration in 10% dimethyl sulfoxide (DMSO). Two-fold serial dilutions on a 96 well plate were set up in triplicate with starting concentration of 6.5 μM and a final concentration of 3 nM. Bortezomib was used as a comparator for toxicity against human fibroblast and was serially diluted two-fold starting at a concentration of 5 μM and ending at 2.5 nM. Bortezomib is used clinically against myeloma and lymphoma cancers in patients refractory against other chemotherapeutics (See References 18, 19). Furthermore, bortezomib has shown efficacy against a variety of solid tumors and cancer cell lines, making this an appropriate comparison molecule in the panel of cell lines chosen (See References 34-35). The plates were then incubated at 37° C. in 5% CO2 for 48 hours. After 48 hours, cell viability was monitored using CellTiter-Blue (Promega) cell viability assay by measuring the fluorescence emission of a redox activated dye (579EX/584EM) using a POLARstar Omega microplate reader (BMG Labtech).

[2] = Single dose toxicity study, i.v. occidiofungin in 1.5% hydroxy propyl-beta-cyclodextrin/PBS; format: in vivo, mice
Experimental: Female BALB/c mice at age of 6-8 weeks old were used. These mice were purchased from Harlan and allowed to acclimate at least 2 weeks after arrival. They were housed on a 12 hour light-dark cycle in a temperature and humidity controlled animal facility that is accredited by the American Association for Accreditation of Laboratory Animal Care. Animal care and use were in accord with NIH Guidelines and Texas A&M University regulations. Protocols used for the mice models were done in accordance to the methods reported by Luster et al. (See Reference 12).
Occidiofungin was produced as previously described and aliquoted and lyophilized into 100 μg quantities in 1.8 mL centrifuge tubes. […] Mice (5 mice per group) were given occidiofungin dissolved in 1.5% hydroxy propyl-beta-cylcodextrin suspended in phosphate buffered saline (PBS). […] For the experiments, occidiofungin was administered by intravenous (i.v.) injection into the tail vein at a single dose at 5 mg/kg of body weight. The excipient control in each experiment matched the vehicle. Body weight and clinical signs (movement, posture, skin lesions, appearance of fur indicating normal grooming, and behaviors) were recorded following administration at one, four, eight, sixteen, and twenty-four hours. Necropsies were performed at 24 hours following administration of occidiofungin.
Blood and tissue samples from animals dosed at 5 mg/kg of body weight with occidiofungin in 1.5% hydroxy propyl-beta-cylcodextrin suspended in PBS were taken 24 hours following excipient or drug administration. Mice were anesthetized with isofluorane. Blood was then taken from the retroorbital plexus or heart puncture for serum biochemistry assays (alkaline phosphatase, alanine aminotransferase, aspartate aminotransferase, albumin, and blood urea nitrogen) and hematology (white blood cell count and white blood cell differentiation). Body weight was measured immediately before treatment and 24 hours later before the mice were fully anesthetized and fixed in 10% neutral buffered formalin. Histological examination was performed on a portion of each organ by using routine paraffin embedding technique and staining with hematoxylin and eosin (H & E) (See Reference 14). All the sections were examined under light microscopy for pathological changes by a co-author of this paper, who is a board certified veterinary pathologist.

wide array of fungi = conditions: cited from earlier work
[3] = single IV dose 5 mg/kg, 24 hours
[4] = single IV dose 5 mg/kg, 24 hours, mean, 5 mg/kg

Substance: occidiofungin
- cancer cell lines relative to normal human primary dermal fibroblasts cell line ([1]; TC50 of OVCAR8, SW1088, Toledo vs fibroblasts): approximately eight-fold higher
- CC50 ([1]; human fibroblast cell line, 48 hours, mean of three independent experiments, read-out: TC50 (the source's name)): 533 nM
- activity relative to bortezomib against the human fibroblast cell line ([1]; occidiofungin vs bortezomib): approximately eight-fold higher
- behavioral response at 1 hour and to a lesser extent at 4 hours post i.v. administration ([2]; 5 mg/kg i.v.): more lethargic than excipient treated mice and had ruffled fur
- mice behavior by 8, 16, and 24 hour post injection ([2]; 5 mg/kg i.v.): appeared to be normal
- histological examination of organ tissues ([2]; 5 mg/kg i.v., 24 hours, esophagus, stomach, small intestine, colon, liver, pancreas, spleen, kidneys, lungs, heart, brain): no histological abnormalities; also recorded: No observable differences
- ratio of AST to ALT in all treated mice ([2]; 5 mg/kg i.v., 24 hours, ratio less than one indicative of liver damage): greater than one
- average weight loss ([2]; single 5 mg/kg i.v. dose, 24 hours): 6.2%
- Hematology: Lymphocytes % [2, 3]: 54 ± 15%
- Hematology: Neutrophils % [2, 3]: 43 ± 14%
- Hematology: Platelet estimate [2, 3]: 39 ± 21 xK/ul
- Hematology: WBC estimate [2, 3]: 4750 ± 1225
- Serum Biochemistry: ALP [2, 3]: 99 ± 34 U/l
- Serum Biochemistry: Albumin [2, 3]: 3.1 ± 0.6 g/dL
- Serum Biochemistry: BUN [2, 3]: 29.6 ± 5 mg/dL
- Weight Change % ([2]; single IV dose 5 mg/kg, 24 hours after administration, mean ± SD): −6.2 ± 9.9%
- Serum Biochemistry: ALT (SGPT) [2, 4]: 521 U/l and 521 ± 652 U/l
- Serum Biochemistry: AST (SGOT) [2, 4]: 765 U/l and 765 ± 692 U/l
- toxicity observed in mice ([2]; single i.v. dose at 5 mg/kg): no significant toxicity
- concentrations at which antifungal activity was observed (wide array of fungi): micromolar to sub micromolar
